Source: PubChem BioAssay AID1671465 (Sanford-Burnham Center for Chemical Genomics, 2021)
Activity calls are given as the source filed them.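 How the source made its calls: active means compounds whose mean EC50 for raising GC-A cGMP output is under 66 µM; inactive means the rest.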

Target: Atrial natriuretic peptide receptor 1 (Homo sapiens) (UniProt P16066)
Assay: human GC-A cGMP response enhancers – HEK293 GC-A cells, cGMP TR-FRET, powder samples, SAR follow-up (AID 1671465)
Conditions: EC30 ANP

Atrial natriuretic peptide receptor 1 (Homo sapiens), sequence (P16066 whole entry, looked up): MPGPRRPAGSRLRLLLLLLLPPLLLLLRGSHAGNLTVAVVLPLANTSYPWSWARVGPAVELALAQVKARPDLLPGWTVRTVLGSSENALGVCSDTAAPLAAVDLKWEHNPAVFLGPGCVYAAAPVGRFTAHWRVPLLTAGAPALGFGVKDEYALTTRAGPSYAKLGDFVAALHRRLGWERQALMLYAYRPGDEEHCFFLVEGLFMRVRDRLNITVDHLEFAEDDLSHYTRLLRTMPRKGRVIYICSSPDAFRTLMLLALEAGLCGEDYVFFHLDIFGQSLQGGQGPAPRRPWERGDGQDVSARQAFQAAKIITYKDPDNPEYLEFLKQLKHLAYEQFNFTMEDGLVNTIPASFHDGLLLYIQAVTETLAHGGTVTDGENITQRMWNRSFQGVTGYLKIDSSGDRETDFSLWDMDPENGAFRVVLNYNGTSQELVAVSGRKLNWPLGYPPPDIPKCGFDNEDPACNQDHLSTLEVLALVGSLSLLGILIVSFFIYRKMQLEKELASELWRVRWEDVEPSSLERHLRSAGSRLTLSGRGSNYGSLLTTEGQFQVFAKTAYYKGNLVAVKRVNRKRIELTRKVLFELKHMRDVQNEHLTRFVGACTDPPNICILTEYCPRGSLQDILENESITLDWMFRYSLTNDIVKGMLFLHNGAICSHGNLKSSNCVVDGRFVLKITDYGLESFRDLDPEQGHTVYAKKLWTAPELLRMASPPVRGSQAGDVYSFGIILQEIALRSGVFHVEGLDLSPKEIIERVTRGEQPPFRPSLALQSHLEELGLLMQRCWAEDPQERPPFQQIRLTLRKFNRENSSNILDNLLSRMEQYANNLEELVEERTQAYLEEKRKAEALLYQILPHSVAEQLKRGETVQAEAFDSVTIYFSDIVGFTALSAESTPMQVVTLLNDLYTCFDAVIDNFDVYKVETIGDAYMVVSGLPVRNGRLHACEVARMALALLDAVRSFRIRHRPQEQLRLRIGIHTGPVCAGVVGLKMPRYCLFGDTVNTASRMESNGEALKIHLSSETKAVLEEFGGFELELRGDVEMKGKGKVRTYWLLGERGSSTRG

Row | SMILES | EC50
1 | CN(C)CCN1CCCC(C(=O)Nc2nc3c(F)cc(F)cc3s2)C1 (stereo unspecified) | 393 nM
2 | CC(C)(C)C(=O)N1CCCC(C(=O)Nc2nc3c(F)cc(F)cc3s2)C1 (stereo unspecified) | 5070 nM
3 | O=C(Nc1nc2c(F)cc(F)cc2s1)C1CCCN(C(=O)C2CCC2)C1 (stereo unspecified) | 1810 nM
4 | CC(C)(C)CC(=O)N1CCCC(C(=O)Nc2nc3c(F)cc(F)cc3s2)C1 (stereo unspecified) | 3570 nM
5 | CS(=O)(=O)N1CCCC(C(=O)Nc2nc3c(F)cc(F)cc3s2)C1 (stereo unspecified) | 1750 nM
6 | O=C(Nc1nc2c(F)cc(F)cc2s1)C1CCCN(C(=O)Cc2ccccc2)C1 (stereo unspecified) | 2020 nM
7 | CC(C)(C)C(=O)N1CCC(C(=O)Nc2nc3c(Cl)cccc3s2)CC1 | 2000 nM
8 | O=C(Nc1nc2c(F)cc(F)cc2s1)C1CCN(C(=O)C2CCC2)CC1 | 1720 nM
9 | O=C(Nc1nc2c(F)cc(F)cc2s1)C1CCCN(C(=O)C2CC2)C1 (stereo unspecified) | 1970 nM
10 | CN1CCCC(C(=O)Nc2nc3c(F)cc(F)cc3s2)C1 (stereo unspecified) | 1230 nM

More lines, now with the values ahead:

Row | EC50 | SMILES
11 | 3360 nM | O=C(Nc1nc2c(F)cc(F)cc2s1)C1CCCN(C(=O)c2ccccc2)C1 (stereo unspecified)
12 | 2410 nM | O=C(Nc1nc2c(F)cc(F)cc2s1)C1CCCN(Cc2ccccc2)C1 (stereo unspecified)
13 | 1050 nM | O=C(Nc1nc2c(F)cc(F)cc2s1)C1CCCNC1 (stereo unspecified)
14 | 840 nM | CC(C)N1CCC(C(=O)Nc2nc3c(F)cc(F)cc3s2)CC1
15 | > 66700 nM (inactive) | CC(C)(C)C(=O)N1CCC(C(=O)Nc2nc3c(Cl)ccc(Cl)c3s2)CC1
16 | 8260 nM | CC(C)(C)OC(=O)N1CCCC(C(=O)Nc2nc3c(F)cc(F)cc3s2)C1 (stereo unspecified)
17 | 1650 nM | CC(=O)N1CCCC(C(=O)Nc2nc3c(F)cc(F)cc3s2)C1 (stereo unspecified)
18 | 23900 nM | CC(=O)Nc1nc2c(F)cc(F)cc2s1
19 | 2730 nM | O=C(Nc1nc2c(F)cc(F)cc2s1)C1CCCCC1
20 | 1150 nM | CC(=O)N1CCC(C(=O)Nc2nc3c(F)cc(F)cc3s2)CC1
21 | 2090 nM | CC(C)(C)C(=O)N1CCC(C(=O)Nc2nc3c(F)cc(F)cc3s2)C1 (stereo unspecified)
